Where a SMILES comes first, the peptide text is derived from it. The star is where a group is joined. Cbz = O=C(OCc1ccccc1)*
Experiments:
MPK38 = assay: Immunoblot analysis of MPK38 stability and ubiquitination in adipocytes treated with DHT or E2; type: cell-based, mouse; settings: for stability of MPK38: adipocytes of 4.5-month-old male and female mice, 10 nM, 24 hours, then cycloheximide 20 μg/ml; for endogenous ubiquitination of MPK38: adipocytes, regardless of gender
Experimental: In order to determine whether or not sex hormones such as testosterone and estrogen affect the kinase activity and expression of MPK38, immunoblot analysis was performed on adipocytes derived from 4.5-month-old normal male and female mice treated with DHT and E2.

MPK38-Mdm2 complex = assay: Endogenous MPK38-Mdm2 complex formation (immunoprecipitation/immunoblot) in adipocytes; type: cell-based, mouse; settings: vs control group not treated with DHT or E2
Experimental: Furthermore, since MPK38 physically interacts with Mdm2, whether or not DHT and E2 are involved in the decomposition of MPK38 mediated by Mdm2 was determined.

MPK38-ZPR9 complex = assay: Endogenous MPK38-ZPR9 complex formation in adipocytes; type: cell-based, mouse; settings: both females and males
Experimental: (§1) In order to further determine whether or not testosterone increases the stability of MPK38, the effect of DHT on the formation of a complex of MPK38 with either ZPR9 or Trx was analyzed. The reason for this is that ZPR9 or Trx acts as a stabilizer or destabilizer of MPK38.

MPK38-Trx complex = assay: Endogenous MPK38-Trx complex formation in adipocytes; type: cell-based, mouse; settings: both females and males
Experimental: as §1

ASK1/TGF-β/p53 signaling = assay: MPK38-dependent ASK1/TGF-β/p53 signaling in adipocytes treated with DHT or E2; type: cell-based, mouse; settings: vs control group not treated with DHT or E2; H2O2, TGF-β1 or 5FU stimulation
mouse hepatocytes = assay: Effects of DHT and E2 on lipid metabolism and MPK38 kinase activity in hepatocytes; type: cell-based; settings: 10 nM each, compared with adipocytes
[1] = system: castrated MPK38−/− male mice; assay: Testosterone replacement in castrated male mice; type: in vivo, mouse
Experimental: A mixture of ketamine (34 mg/kg), xylazine (6.8 mg/kg) and acepromazine (1.1 mg/kg) was dissolved in saline, and the mice were anesthetized using this solution, and then surgery was performed. The surgical site was shaved and washed, and then sterilized with 70% alcohol. For castration, after abdomen midline incision, castration was performed such that the testes and attached fat pads were left intact. The testes were removed through an incision, but the testicular ducts and blood vessels supplying the testes were ligated with sterile silk suture and the testicular fat pads were put back, followed by closure with sterile silk suture. For sham castration, the testes with attached fat pads were exposed and put back without organ extirpation after abdominal incision, and the incision was closed with sterile silk suture. For ovariectomy, after midline abdominal incision, the uterus, oviducts, and ovaries with the fat pads were left intact. The ovaries were removed through an incision, but the oviduct and blood vessels supplying the ovaries were ligated with sterile silk suture and the ovarian fat pads were put back, followed by closure with sterile silk suture. […] After surgery, mice were monitored until they are fully recovered from anesthesia. […]

SMILES | stability of MPK38 (MPK38) | endogenous ubiquitination of MPK38 (MPK38) | formation of endogenous MPK38-Mdm2 complex (MPK38-Mdm2 complex) | formation of endogenous MPK38-ZPR9 complex (MPK38-ZPR9 complex) | formation of MPK38-Trx complex (MPK38-Trx complex) | ASK1/TGF-β/p53 signaling (ASK1/TGF-β/p53 signaling) | effects on lipid metabolism and MPK38 kinase activity in liver cells (mouse hepatocytes) | stability of MPK38 on exposure to proteasome inhibitor (MPK38; 10 μM MG132, treated vs untreated group) | effects of castration on metabolism after testosterone replacement ([1]; castrated male mice, T replacement (FIG. 14)) | glucose or lipid metabolism ([1]; middle-aged (7 months old) MPK38−/− male mice, testosterone pellets 25 μg/day)
C[C@]12CCC(=O)C[C@@H]1CC[C@@H]1[C@@H]2CC[C@]2(C)[C@@H](O)CC[C@@H]12 [DHT] | increased | decreased | decreased | increased | decreased | increased | similar | – | – | –
C[C@]12CC[C@@H]3c4ccc(O)cc4CC[C@H]3[C@@H]1CC[C@@H]2O [E2] | decreased | increased | increased | results opposite those of treatment with DHT | results opposite those of treatment with DHT | decreased | similar | – | – | –
CC(C)C[C@@H](C=O)NC(=O)[C@H](CC(C)C)NC(=O)[C@H](CC(C)C)NC(=O)OCc1ccccc1 [MG132] (Cbz-Leu-Leu-Leu-aldehyde) | – | – | – | – | – | – | – | increase | – | –
C[C@]12CC[C@H]3[C@@H](CCC4=CC(=O)CC[C@@]43C)[C@@H]1CC[C@@H]2O [testosterone] | – | – | – | – | – | – | – | – | effects opposite to all of these results | did not affect

— patent US20240100131A1, “NOVEL USE OF MPK38/MELK AS THERAPEUTIC AGENT FOR OBESITY OR METABOLIC DISEASES SPECIFIC TO MIDDLE-AGED MEN” (priority 2021, published 2024)
